# Assays:
# [1] = target: mutEGFR (D770_N771insSVD) (Homo sapiens, UniProt P00533, INS767SVD); test: Exon20-mutant-EGFR (D770_N771insSVD) TR-FRET kinase assay; format: biochemical; details: 2 mM ATP, 15 min preincubation
# Source text: Inhibitory activity of compounds of the present invention against an Epidermal Growth Factor Receptor (EGFR) with an insertion of the amino acids sequence SVD between D770 and N771 (SEQ ID No. 5) was quantified employing the TR-FRET based kinase activity assay as described in the following paragraphs.
# A recombinant fusion protein of N-terminal Glutathion-S-Transferase (GST) and a fragment of human EGFR variant (amino acids R669 to A1210 with insertion of the amino acids sequence SVD between D770 and N771 (SEQ ID No. 5) (“EGFR ins SVD”), expressed in Sf9 insect cells and purified via affinity chromatography using Glutathion Sepharose as described above, was used as a kinase. As substrate for the kinase reaction the biotinylated peptide biotin-Ahx-AEEEEYFELVAKKK (C-terminus in amide form) (SEQ ID No. 6) was used which can be purchased e.g. form the company Biosynthan GmbH (Berlin-Buch, Germany).
# For the assay 50 nl of a 100-fold concentrated solution of the test compound in DMSO was pipetted into either a black low volume 384 well microtiter plate or a black 1536 well microtiter plate (both Greiner Bio-One, Frickenhausen, Germany), 2 μl of a solution of EGFR in aqueous assay buffer [50 mM Hepes pH 7.0, 10 mM MgCl2, 1 mM dithiothreitol, 0.5 mM EGTA, 0.3 mM activated sodium ortho-vanadate, 0.005% (w/v) bovine serum albumin, 0.005% (v/v) Tween-20] were added and the mixture was incubated for 15 min at 22° C. to allow pre binding of the test compounds to the enzyme before the start of the kinase reaction. […] The concentration of EGFR was adjusted depending of the activity of the enzyme lot and was chosen appropriate to have the assay in the linear range, typical concentration was 15 pg/μl. The reaction was stopped by the addition of 3 μl of a solution of HTRF detection reagents (83.3 nM streptavidine-XL665 [Cisbio Bioassays, Codolet, France] and 1.67 nM PT66-Tb-Cryptate, a terbium-cryptate labelled anti-phospho-tyrosine antibody from Cisbio Bioassays [instead of the PT66 Tb cryptate PT66 Eu Chelate from Perkin Elmer can also be used]) in an aqueous EDTA-solution (133.3 mM EDTA, 0.2% (w/v) bovine serum albumin in 50 mM HEPES pH 7.5).
# The resulting mixture was incubated 1 h at 22° C. to allow the binding of the biotinylated phosphorylated peptide to the streptavidine-XL665 and the PT66-Tb-Cryptate. Subsequently, the amount of phosphorylated substrate was evaluated by measurement of the resonance energy transfer from the PT66-Tb-Cryptate to the streptavidine-XL665. Therefore, the fluorescence emissions at 620 nm and 665 nm after excitation at 337 nm were measured in a HTRF reader, e.g. a Pherastar (BMG Labtechnologies, Offenburg, Germany) or a Viewlux (Perkin-Elmer). The ratio of the emissions at 665 nm and at […] was taken as the measure for the amount of phosphorylated substrate. The data were normalised (enzyme reaction without inhibitor=0% inhibition, all other assay components but no enzyme=100% inhibition).
# [2] = target: mutEGFR (D770_N771insNPG, T790); test: mutEGFR (D770_N771insNPG, T790) kinase assay; format: biochemical, human
# [3] = test system: BA/F3 (insSVD) cells; test: Ba/F3 cell survival assay (Cell Titer-Glo), EGFR-insSVD; format: cell-based; details: Mus musculus, BaF3, 48 h, without IL-3, with EGF
# Protocol: 293T cells from ATCC were transfected with pBABEpuro expression constructs for WT EGFR or EGFR-insSVD, or EGFR-insSVD T790M, and pCL-Eco packaging vector using Fugene-6 transfection reagent from Promega. Plates were incubated at 37° C. for 48 h. Retrovirus was harvested by filtering the media supernatant through a 0.45 μm filter.
# Ba/F3 cells purchased from DSMZ were grown in RPMI+10% FBS+10 ng/mL IL-3 and infected with filtered retroviral supernatant at a 1:2 dilution. Polybrene was added to a concentration of 8 μg/mL, plates were spun for 90 min, and incubated for 16 h at 37° C. 2 μg/mL puromycin was added to the infected cells 24 h after infection and cells were continually grown in the presence of puromycin and 10 ng/mL IL-3. Following stably expressing Ba/F3 cell lines were generated: Ba/F3-EGFR-WT, Ba/F3-EGFR-insSVD, Ba/F3-EGFR-insSVD T790M, (Ba/F3-vector-control).
# For cell survival assays, Ba/F3 cells were grown to a density of 1-2 million cells per mL, spun down and resuspended in media without IL-3, and replated at a concentration of 200,000-500,000 cells per mL. The cells ectopically expressing WT EGFR, EGFR-insSVD, or EGFR-insSVD T790M were plated with 10 ng/mL Millipore Culture grade EGF. The cells ectopically expressing pBABEpuro empty vector were plated with 10 ng/mL IL-3.
# 2 days later, cells were plated in 50 μL in a 384 well plate at a concentration of 4000 cells per well for cells assayed in the absence of IL-3 and 2000 cells per well for cells assayed in the presence of IL-3. 100 nL of compound was added to each well using a 100 nL pin head, and plates were incubated at 37° C. for 48 h.
# Cell viability was measured by adding 20 μL of Cell Titer-Glo Luminescent Cell Viability Reagent diluted 1:3 in PBS. Plates were sealed with Perkin Elmer Top-Seal, inverted several times to mix, and immediately centrifuged at 1000 rpm for 2 min. Plates were incubated in low light conditions for 8-10 min and luminescence was measured.
# mutEGFR (D770_N771insSVD), sequence (P00533 with tags, fused parts or gaps INS767SVD limits assumed): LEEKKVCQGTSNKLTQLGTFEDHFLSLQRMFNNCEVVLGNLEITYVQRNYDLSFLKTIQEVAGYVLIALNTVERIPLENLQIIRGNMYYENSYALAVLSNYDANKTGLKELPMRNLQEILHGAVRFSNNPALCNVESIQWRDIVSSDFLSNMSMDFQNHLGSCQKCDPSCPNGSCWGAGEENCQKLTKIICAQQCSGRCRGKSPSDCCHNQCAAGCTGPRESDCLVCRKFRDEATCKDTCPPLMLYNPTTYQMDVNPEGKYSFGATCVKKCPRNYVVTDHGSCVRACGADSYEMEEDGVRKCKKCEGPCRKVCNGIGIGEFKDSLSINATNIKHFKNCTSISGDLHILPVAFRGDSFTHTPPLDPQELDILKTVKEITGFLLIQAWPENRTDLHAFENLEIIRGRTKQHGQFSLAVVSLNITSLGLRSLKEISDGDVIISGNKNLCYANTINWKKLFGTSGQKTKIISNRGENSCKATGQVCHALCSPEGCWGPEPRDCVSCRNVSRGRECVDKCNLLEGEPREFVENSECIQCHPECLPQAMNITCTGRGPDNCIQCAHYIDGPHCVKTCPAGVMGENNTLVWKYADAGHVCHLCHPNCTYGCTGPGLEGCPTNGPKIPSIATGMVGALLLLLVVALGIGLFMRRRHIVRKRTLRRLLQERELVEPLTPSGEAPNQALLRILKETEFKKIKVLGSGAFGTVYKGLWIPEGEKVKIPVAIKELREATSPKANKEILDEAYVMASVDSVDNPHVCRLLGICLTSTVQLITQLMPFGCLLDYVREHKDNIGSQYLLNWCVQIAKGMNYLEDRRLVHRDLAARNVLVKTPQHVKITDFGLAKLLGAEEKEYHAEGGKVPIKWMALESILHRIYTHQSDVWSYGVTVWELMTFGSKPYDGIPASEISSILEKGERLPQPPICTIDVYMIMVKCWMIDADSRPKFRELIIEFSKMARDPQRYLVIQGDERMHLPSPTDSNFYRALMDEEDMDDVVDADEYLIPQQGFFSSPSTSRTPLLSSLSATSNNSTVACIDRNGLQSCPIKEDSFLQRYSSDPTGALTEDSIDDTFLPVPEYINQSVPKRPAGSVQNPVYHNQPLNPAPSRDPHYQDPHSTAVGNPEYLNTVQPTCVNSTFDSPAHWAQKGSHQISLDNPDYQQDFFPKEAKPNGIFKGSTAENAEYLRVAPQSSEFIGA
# mutEGFR (D770_N771insNPG, T790), sequence (P00533 with tags, fused parts or gaps INS770NPG limits assumed): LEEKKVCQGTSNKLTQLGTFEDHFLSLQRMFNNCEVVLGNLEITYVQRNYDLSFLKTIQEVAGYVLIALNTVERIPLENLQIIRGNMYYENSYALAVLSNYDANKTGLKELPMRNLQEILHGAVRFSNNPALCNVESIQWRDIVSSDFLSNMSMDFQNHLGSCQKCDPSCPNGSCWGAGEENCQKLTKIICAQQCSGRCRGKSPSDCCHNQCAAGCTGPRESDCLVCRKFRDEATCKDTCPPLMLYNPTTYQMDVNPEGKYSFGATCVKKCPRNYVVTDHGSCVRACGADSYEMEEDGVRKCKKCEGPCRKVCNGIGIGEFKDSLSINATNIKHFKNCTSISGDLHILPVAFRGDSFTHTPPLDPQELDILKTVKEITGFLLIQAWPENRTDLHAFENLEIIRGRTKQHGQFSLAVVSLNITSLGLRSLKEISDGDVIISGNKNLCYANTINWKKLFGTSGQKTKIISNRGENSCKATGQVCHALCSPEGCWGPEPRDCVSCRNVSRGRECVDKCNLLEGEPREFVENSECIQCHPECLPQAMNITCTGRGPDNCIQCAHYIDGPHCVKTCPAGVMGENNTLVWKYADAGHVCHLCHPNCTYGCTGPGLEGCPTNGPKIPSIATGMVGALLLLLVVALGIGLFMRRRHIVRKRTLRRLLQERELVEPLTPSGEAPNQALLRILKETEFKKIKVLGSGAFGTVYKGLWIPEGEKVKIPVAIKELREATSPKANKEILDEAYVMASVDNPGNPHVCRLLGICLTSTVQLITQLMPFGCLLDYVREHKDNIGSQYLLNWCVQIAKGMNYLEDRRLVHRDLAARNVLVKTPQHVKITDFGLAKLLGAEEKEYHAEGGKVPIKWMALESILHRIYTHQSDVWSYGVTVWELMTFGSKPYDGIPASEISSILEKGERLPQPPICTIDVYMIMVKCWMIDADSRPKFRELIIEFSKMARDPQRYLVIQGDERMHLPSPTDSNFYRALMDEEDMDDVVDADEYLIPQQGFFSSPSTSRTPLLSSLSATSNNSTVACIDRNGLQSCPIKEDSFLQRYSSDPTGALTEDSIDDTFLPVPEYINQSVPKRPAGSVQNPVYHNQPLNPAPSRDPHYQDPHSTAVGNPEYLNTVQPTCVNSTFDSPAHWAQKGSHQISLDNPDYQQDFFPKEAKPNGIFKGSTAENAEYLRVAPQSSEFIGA
Structure (SMILES),IC50 [1],IC50 [2],IC50 [3]
"C=CC(=O)N(C)CCOc1cnccc1-c1[nH]c2cccnc2c1-c1cccc(C(F)(F)F)c1 [Example 49, N-methyl-N-{2-[(4-{3-[3-(trifluoromethyl)phenyl]-1H-pyrrolo[3,2-b]pyridin-2-yl}pyridin-3-yl)oxy]ethyl}prop-2-enamide]",0.0574 µM,0.151 µM,1.93 µM
"C=CC(=O)N(C)CCOc1cnccc1-c1[nH]c2cccnc2c1-c1cc(C)cc(F)c1 [Example 50, N-[2-({4-[3-(3-fluoro-5-methylphenyl)-1H-pyrrolo[3,2-b]pyridin-2-yl]pyridin-3-yl}oxy)ethyl]-N-methylprop-2-enamide]",0.0637 µM,0.131 µM,1.77 µM
"C=CC(=O)N(C)CCOc1cnccc1-c1[nH]c2cccnc2c1-c1cc(C(F)(F)F)ccc1F [Example 51, N-{2-[(4-{3-[2-fluoro-5-(trifluoromethyl)phenyl]-1H-pyrrolo[3,2-b]pyridin-2-yl}pyridin-3-yl)oxy]ethyl}-N-methylprop-2-enamide]",0.0756 µM,0.132 µM,1.92 µM
"C=CC(=O)N(C)CCOc1cnccc1-c1[nH]c2cccnc2c1-c1cc(F)cc(F)c1 [Example 52, N-[2-({4-[3-(3,5-difluorophenyl)-1H-pyrrolo[3,2-b]pyridin-2-yl]pyridin-3-yl}oxy)ethyl]-N-methylprop-2-enamide]",0.0771 µM,0.204 µM,3.1 µM
"C=CC(=O)N(C)CCOc1cnccc1-c1[nH]c2cccnc2c1-c1ccccc1CC [Example 53, N-[2-({4-[3-(2-ethylphenyl)-1H-pyrrolo[3,2-b]pyridin-2-yl]pyridin-3-yl}oxy)ethyl]-N-methylprop-2-enamide]",0.112 µM,0.744 µM,3.27 µM
"C=CC(=O)N(C)CCOc1cnccc1-c1[nH]c2cccnc2c1-c1cccc(OC)c1 [Example 54, N-[2-({4-[3-(3-methoxyphenyl)-1H-pyrrolo[3,2-b]pyridin-2-yl]pyridin-3-yl}oxy)ethyl]-N-methylprop-2-enamide]",0.118 µM,0.24 µM,3.96 µM
"C=CC(=O)N(C)CCOc1cnccc1-c1[nH]c2cccnc2c1-c1cccc(C(C)C)c1 [Example 55, N-methyl-N-{2-[(4-{3-[3-(propan-2-yl)phenyl]-1H-pyrrolo[3,2-b]pyridin-2-yl}pyridin-3-yl)oxy]ethyl}prop-2-enamide]",0.118 µM,0.598 µM,3.05 µM
"C=CC(=O)N(C)CCOc1cnccc1-c1[nH]c2cccnc2c1-c1cc(OC)ccc1F [Example 56, N-[2-({4-[3-(2-fluoro-5-methoxyphenyl)-1H-pyrrolo[3,2-b]pyridin-2-yl]pyridin-3-yl}oxy)ethyl]-N-methylprop-2-enamide]",0.152 µM,0.395 µM,4.18 µM
"C=CC(=O)N(C)CCOc1cnccc1-c1[nH]c2cccnc2c1-c1cc(Cl)ccc1Cl [Example 57, N-[2-({4-[3-(2,5-dichlorophenyl)-1H-pyrrolo[3,2-b]pyridin-2-yl]pyridin-3-yl}oxy)ethyl]-N-methylprop-2-enamide]",0.156 µM,0.45 µM,4.59 µM
"C=CC(=O)N(C)CCOc1cnccc1-c1[nH]c2cccnc2c1-c1cccc(OC(F)(F)F)c1 [Example 58, N-methyl-N-{2-[(4-{3-[3-(trifluoromethoxy)phenyl]-1H-pyrrolo[3,2-b]pyridin-2-yl}pyridin-3-yl)oxy]ethyl}prop-2-enamide]",0.249 µM,1.16 µM,6.28 µM
"C=CS(=O)(=O)N(C)CCOc1cnccc1-c1[nH]c2cccnc2c1-c1cc(C(F)(F)F)ccc1F [Example 59, N-{2-[(4-{3-[2-fluoro-5-(trifluoromethyl)phenyl]-1H-pyrrolo[3,2-b]pyridin-2-yl}pyridin-3-yl)oxy]ethyl}-N-methylethenesulfonamide]",0.000499 µM,0.0016 µM,0.0764 µM

# — patent publication US20260035365A1, “1H-PYRROLO[3,2-B]PYRIDINE DERIVATIVES AS IRREVERSIBLE INHIBITORS OF MUTANT EGFR FOR THE TREATMENT OF CANCER” (Bayer Aktiengesellschaft, priority 2022, published 2026)
